Experimental data taken from PubChem BioAssay (NCI).
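Protocol summary: plate cells (96-well), add compound at 5 concentrations, incubate 48 h, interpolate endpoints linearly. Abbreviation: GI50, concentration required for 50% inhibition of growth. TGI is the concentration that stops growth completely.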

Tests used:
Assay in all cases: NCI tumour cell line growth inhibition, 48 h
SW-620 colon = test system: SW-620 colon
M14 melanoma = test system: M14 melanoma
BT-549 breast = test system: BT-549 breast
NCI-H226 lung = test system: NCI-H226 lung
HCT-116 colon = test system: HCT-116 colon
MDA-MB-231 breast = test system: MDA-MB-231 breast
A498 renal = test system: A498 renal
RXF 393 renal = test system: RXF 393 renal
SK-OV-3 ovarian = test system: SK-OV-3 ovarian
SN12C renal = test system: SN12C renal
SNB-19 CNS = test system: SNB-19 CNS
SK-MEL-5 melanoma = test system: SK-MEL-5 melanoma
SR leukemia = test system: SR leukemia
SK-MEL-2 melanoma = test system: SK-MEL-2 melanoma
TK-10 renal = test system: TK-10 renal
U251 CNS = test system: U251 CNS
NCI-H460 lung = test system: NCI-H460 lung
HCT-15 colon = test system: HCT-15 colon
ACHN renal = test system: ACHN renal
HOP-62 NSCLC = test system: HOP-62 NSCLC
HCC-2998 colon = test system: HCC-2998 colon
NCI/ADR-RES ovarian = test system: NCI/ADR-RES ovarian
SNB-75 CNS = test system: SNB-75 CNS
OVCAR-3 ovarian = test system: OVCAR-3 ovarian
SK-MEL-28 melanoma = test system: SK-MEL-28 melanoma
786-0 renal = test system: 786-0 renal
T-47D breast = test system: T-47D breast
A549 NSCLC = test system: A549 NSCLC
OVCAR-4 ovarian = test system: OVCAR-4 ovarian
UO-31 renal = test system: UO-31 renal
IGROV1 ovarian = test system: IGROV1 ovarian
LOX IMVI melanoma = test system: LOX IMVI melanoma
MOLT-4 leukemia = test system: MOLT-4 leukemia
HT29 colon = test system: HT29 colon
PC-3 prostate = test system: PC-3 prostate
UACC-62 melanoma = test system: UACC-62 melanoma
EKVX NSCLC = test system: EKVX NSCLC
NCI-H522 lung = test system: NCI-H522 lung
CCRF-CEM leukemia = test system: CCRF-CEM leukemia
MALME-3M melanoma = test system: MALME-3M melanoma
HOP-92 NSCLC = test system: HOP-92 NSCLC
RPMI-8226 leukemia = test system: RPMI-8226 leukemia
SF-539 CNS = test system: SF-539 CNS
MCF7 breast = test system: MCF7 breast
K-562 leukemia = test system: K-562 leukemia
KM12 colon = test system: KM12 colon
MDA-MB-435 = test system: MDA-MB-435
SF-295 CNS = test system: SF-295 CNS
SF-268 CNS = test system: SF-268 CNS
OVCAR-8 ovarian = test system: OVCAR-8 ovarian
HS 578T breast = test system: HS 578T breast
HL-60(TB) leukemia = test system: HL-60(TB) leukemia
OVCAR-5 ovarian = test system: OVCAR-5 ovarian
UACC-257 melanoma = test system: UACC-257 melanoma
CAKI-1 renal = test system: CAKI-1 renal
COLO 205 colon = test system: COLO 205 colon
DU-145 prostate = test system: DU-145 prostate

COc1cc(OC)c(S(N)(=O)=O)cc1C(=O)/C=C/c1ccc(Cl)cc1
GI50 (SW-620 colon): 2.49 µM | TGI (SW-620 colon): 11.7 µM | GI50 (M14 melanoma): 1.47 µM | TGI (M14 melanoma): 3.14 µM | GI50 (BT-549 breast): 1.25 µM | TGI (BT-549 breast): 2.73 µM | GI50 (NCI-H226 lung): 2.56 µM | TGI (NCI-H226 lung): 8.86 µM | GI50 (HCT-116 colon): 0.748 µM | TGI (HCT-116 colon): 2.13 µM | GI50 (MDA-MB-231 breast): 3.92 µM | TGI (MDA-MB-231 breast): 18.9 µM | GI50 (A498 renal): 18.6 µM | TGI (A498 renal): 34 µM | GI50 (RXF 393 renal): 1.62 µM | TGI (RXF 393 renal): 3.34 µM | GI50 (SK-OV-3 ovarian): 2.8 µM | TGI (SK-OV-3 ovarian): 8.22 µM | GI50 (SN12C renal): 2.48 µM | TGI (SN12C renal): 12.6 µM | GI50 (SNB-19 CNS): 3.17 µM | TGI (SNB-19 CNS): 16.7 µM | GI50 (SK-MEL-5 melanoma): 4.93 µM | TGI (SK-MEL-5 melanoma): 16.9 µM | GI50 (SR leukemia): 2.11 µM | TGI (SR leukemia): 7.84 µM | GI50 (SK-MEL-2 melanoma): 11.5 µM | TGI (SK-MEL-2 melanoma): 25.6 µM | GI50 (TK-10 renal): 2.91 µM | TGI (TK-10 renal): 8.89 µM | GI50 (U251 CNS): 2.18 µM | TGI (U251 CNS): 6.48 µM | GI50 (NCI-H460 lung): 2.84 µM | TGI (NCI-H460 lung): 12 µM | GI50 (HCT-15 colon): 1.46 µM | TGI (HCT-15 colon): 10.2 µM | GI50 (ACHN renal): 3.16 µM | TGI (ACHN renal): 11.1 µM | GI50 (HOP-62 NSCLC): 2.58 µM | TGI (HOP-62 NSCLC): 6.59 µM | GI50 (HCC-2998 colon): 2.41 µM | TGI (HCC-2998 colon): 6.12 µM | GI50 (NCI/ADR-RES ovarian): 3.97 µM | TGI (NCI/ADR-RES ovarian): > 100 µM | GI50 (SNB-75 CNS): 1.5 µM | TGI (SNB-75 CNS): 3.23 µM | GI50 (OVCAR-3 ovarian): 3.51 µM | TGI (OVCAR-3 ovarian): 17.6 µM | GI50 (SK-MEL-28 melanoma): 3.03 µM | TGI (SK-MEL-28 melanoma): 9.87 µM | GI50 (786-0 renal): 1.9 µM | TGI (786-0 renal): 4.32 µM | GI50 (T-47D breast): 2.37 µM | TGI (T-47D breast): 12.4 µM | GI50 (A549 NSCLC): 3.17 µM | TGI (A549 NSCLC): 14.2 µM | GI50 (OVCAR-4 ovarian): 3.54 µM | TGI (OVCAR-4 ovarian): 27 µM | GI50 (UO-31 renal): 2.36 µM | TGI (UO-31 renal): 10.3 µM | GI50 (IGROV1 ovarian): 2.95 µM | TGI (IGROV1 ovarian): 12.3 µM | GI50 (LOX IMVI melanoma): 0.733 µM | TGI (LOX IMVI melanoma): 2.51 µM | GI50 (MOLT-4 leukemia): 2.82 µM | TGI (MOLT-4 leukemia): 13 µM | GI50 (HT29 colon): 2.18 µM | TGI (HT29 colon): 4.66 µM | GI50 (PC-3 prostate): 1.6 µM | TGI (PC-3 prostate): 4.25 µM | GI50 (UACC-62 melanoma): 2.67 µM | TGI (UACC-62 melanoma): 10.6 µM | GI50 (EKVX NSCLC): 3.88 µM | TGI (EKVX NSCLC): 22.3 µM | GI50 (NCI-H522 lung): 1.63 µM | TGI (NCI-H522 lung): 3.42 µM | GI50 (CCRF-CEM leukemia): 1.52 µM | TGI (CCRF-CEM leukemia): > 100 µM | GI50 (MALME-3M melanoma): 2.79 µM | TGI (MALME-3M melanoma): 8.51 µM | GI50 (HOP-92 NSCLC): 1.46 µM | TGI (HOP-92 NSCLC): 4.92 µM | GI50 (RPMI-8226 leukemia): 1.86 µM | TGI (RPMI-8226 leukemia): 6.33 µM | GI50 (SF-539 CNS): 2.14 µM | TGI (SF-539 CNS): 4.82 µM | GI50 (MCF7 breast): 1.08 µM | TGI (MCF7 breast): 4.11 µM | GI50 (K-562 leukemia): 1.85 µM | TGI (K-562 leukemia): 13.6 µM | GI50 (KM12 colon): 1.82 µM | TGI (KM12 colon): 7.06 µM | GI50 (MDA-MB-435): 2.08 µM | TGI (MDA-MB-435): 6.54 µM | GI50 (SF-295 CNS): 3.88 µM | TGI (SF-295 CNS): 12.5 µM | GI50 (SF-268 CNS): 3.75 µM | TGI (SF-268 CNS): 26.1 µM | GI50 (OVCAR-8 ovarian): 3.01 µM | TGI (OVCAR-8 ovarian): 14.6 µM | GI50 (HS 578T breast): 4.22 µM | TGI (HS 578T breast): > 100 µM | GI50 (HL-60(TB) leukemia): 1.91 µM | TGI (HL-60(TB) leukemia): 8.88 µM | GI50 (OVCAR-5 ovarian): 3.18 µM | TGI (OVCAR-5 ovarian): 11.5 µM | GI50 (UACC-257 melanoma): 5.46 µM | TGI (UACC-257 melanoma): 22.7 µM | GI50 (CAKI-1 renal): 1.89 µM | TGI (CAKI-1 renal): 10.5 µM | GI50 (COLO 205 colon): 1.66 µM | TGI (COLO 205 colon): 3.13 µM | GI50 (DU-145 prostate): 3.44 µM | TGI (DU-145 prostate): 15.4 µM
